Patent publication US20020137929A1, “1 - (3-heterocyclylphenyl) isothiourea, -isourea, -guanidine and -amidine herbicidal agents” (Intellectual Property Department, BASF Aktiengesellschaft, priority 1998, published 2002)

Key:
ZEAMX (Corn, Field) [1] = test: Postemergence herbicidal evaluation; format: in vivo, Zea mays; conditions: postemergence
Summary of the method: (§1)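 Two-week-old seedlings sprayed with compound in 50/50 acetone/water plus 0.5% TWEEN 20, at about 0.0156 to 0.500 kg/ha, nozzle at 40 psi. Kept in greenhouse; rated visually 4-5 weeks after treatment on a 0-9 scale versus control, repeat tests averaged.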

ORYSAT (Rice, Tebonnet) = test: Preemergence herbicidal evaluation; format: in vivo, Oryza sativa, (L.) Tebonnet; conditions: rated 4-5 weeks after treatment
Summary of the method: (§2)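 Preemergence soil application of compound, sprayed in aqueous acetone at rates equivalent to about 0.0156 to 0.500 kg per hectare onto freshly sown cups. Plant response was judged by eye on a 0-9 scale four to five weeks later.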

[2] = test system: TRZAWR (Wheat, Winter, cv Riband); test: Preemergence herbicidal evaluation; format: in vivo, Triticum aestivum; conditions: rated 4-5 weeks after treatment
Summary of the method: as §2

CYPIR (Rice Flatsedge) = test: Preemergence weed control under flooded paddy conditions; format: in vivo, Cyperus iria; conditions: rated 3-4 weeks after treatment
Summary of the method: (§3)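 Seeds or propagules sown in top 0.5 cm of silt loam soil, flooded 1.5 to 3 cm above surface throughout. Compound in 50/50 v/v aqueous/acetone pipetted into flood water at about 0.0313 to 0.500 kg/ha. Visual 0-9 rating versus control after three to four weeks in greenhouse.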

CASOB (Sicklepod) = test: Postemergence herbicidal evaluation; format: in vivo, Cassia obtusifolia; conditions: postemergence
Summary of the method: as §1

CYPSE (Flatsedge) [3] = test: Preemergence weed control under flooded paddy conditions; format: in vivo, Cyperus serotinus; conditions: rated 3-4 weeks after treatment
Summary of the method: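 Flooded-pot preemergence screen with silt loam and seeds in the upper 0.5 cm. Dose about 0.0313 to 0.500 kg/ha, delivered into flood water; visual 0-9 score after 3 to 4 weeks.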

[4] = test system: ECHORC (Watergrass (Calif.)); test: as above; format: in vivo, Echinochloa oryzoides; conditions: rated 3-4 weeks after treatment
Summary of the method: as §3

ZEAMX (Corn, Field) [5] = test: Preemergence herbicidal evaluation; format: in vivo, Zea mays; conditions: rated 4-5 weeks after treatment
Summary of the method: as §2

[6] = test system: ECHORC (Watergrass (Calif.)); test: Postemergence weed control under flooded paddy conditions; format: in vivo, Echinochloa oryzoides; conditions: postemergence weeds, rated 3 to 4 weeks after treatment
Summary of the method: (§4)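 Weeds 3 to 5 cm tall and rice seedlings at the 1.5 to 2.5 leaf stage were flooded, with water held 1.5 to 3 cm above the soil. Compounds in 50/50 v/v aqueous/acetone went into the flood water at about 0.0313 to 0.500 kg/ha. Visual 0-9 ratings versus control were made 3 to 4 weeks later.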

[7] = test system: IPOHE (Morningglory, Ivyleaf); test: Preemergence herbicidal evaluation; format: in vivo, Ipomoea hederacea; conditions: rated 4-5 weeks after treatment
Summary of the method: as §2

AMBEL (Ragweed, Common) = test: Preemergence herbicidal evaluation; format: in vivo, Ambrosia artemisifolia; conditions: rated 4-5 weeks after treatment
Summary of the method: as §2

GALAP (Galium) = test: Postemergence herbicidal evaluation; format: in vivo, Galium aparine; conditions: postemergence
Summary of the method: as §1

CYPSE (Flatsedge) [8] = test: Postemergence weed control under flooded paddy conditions; format: in vivo, Cyperus serotinus; conditions: postemergence weeds, rated 3 to 4 weeks after treatment
Summary of the method: as §4

[9] = test system: CHEAL (Lambsquarters, Common); test: Preemergence herbicidal evaluation; format: in vivo, Chenopodium album; conditions: rated 4-5 weeks after treatment
Summary of the method: as §2

COC(=O)[C@H](Cc1ccccc1)N1C(=O)CS/C1=N/c1cc(-n2c(=O)cc(C(F)(F)F)n(C)c2=O)c(F)cc1Cl [Compound 72, Methyl α-benzyl-2-{{2-chloro-5-[3,6-dihydro-3-methyl-2,6-dioxo-4-(trifluoromethyl)-1(2H)-pyrimidinyl]-4-fluorophenyl]imino}-4-oxo-3-thiazolidineacetate, L-]
ZEAMX herbicidal rating (ZEAMX (Corn, Field) [1]; rate 0.0158 kg/ha): 4.0
ZEAMX herbicidal rating (ZEAMX (Corn, Field) [1]; rate 0.0315 kg/ha): 4.5
ZEAMX herbicidal rating (ZEAMX (Corn, Field) [1]; rate 0.0630 kg/ha): 6.5
Preemergence herbicidal rating ORYSAT (ORYSAT (Rice, Tebonnet); rate 0.0156 kg/ha): 0.0
Preemergence herbicidal rating ORYSAT (ORYSAT (Rice, Tebonnet); rate 0.0313 kg/ha): 0.0
Preemergence herbicidal rating ORYSAT (ORYSAT (Rice, Tebonnet); rate 0.0625 kg/ha): 0.0
Preemergence herbicidal rating ORYSAT (ORYSAT (Rice, Tebonnet); rate 0.1250 kg/ha): 1.0
Preemergence herbicidal rating ORYSAT (ORYSAT (Rice, Tebonnet); rate 0.2500 kg/ha): 1.0
Preemergence herbicidal rating TRZAWR ([2]; rate 0.0156 kg/ha): 0.0
Preemergence herbicidal rating TRZAWR ([2]; rate 0.0313 kg/ha): 0.0
Preemergence herbicidal rating TRZAWR ([2]; rate 0.0625 kg/ha): 0.0
Preemergence herbicidal rating TRZAWR ([2]; rate 0.1250 kg/ha): 1.0
Preemergence herbicidal rating TRZAWR ([2]; rate 0.2500 kg/ha): 2.0
CYPIR herbicidal effect rating (CYPIR (Rice Flatsedge); 0.0313 kg/ha): 6.0
CYPIR herbicidal effect rating (CYPIR (Rice Flatsedge); 0.0625 kg/ha): 6.0
CYPIR herbicidal effect rating (CYPIR (Rice Flatsedge); 0.1250 kg/ha): 7.0
CYPIR herbicidal effect rating (CYPIR (Rice Flatsedge); 0.2500 kg/ha): 9.0
CASOB herbicidal rating (CASOB (Sicklepod); rate 0.0158 kg/ha): 8.0
CASOB herbicidal rating (CASOB (Sicklepod); rate 0.0315 kg/ha): 6.0
CASOB herbicidal rating (CASOB (Sicklepod); rate 0.0630 kg/ha): 7.0
CYPSE herbicidal effect rating (CYPSE (Flatsedge) [3]; 0.0313 kg/ha): 0.0
CYPSE herbicidal effect rating (CYPSE (Flatsedge) [3]; 0.0625 kg/ha): 0.0
CYPSE herbicidal effect rating (CYPSE (Flatsedge) [3]; 0.1250 kg/ha): 9.0
CYPSE herbicidal effect rating (CYPSE (Flatsedge) [3]; 0.2500 kg/ha): 9.0
ECHORC herbicidal effect rating ([4]; 0.0313 kg/ha): 9.0
ECHORC herbicidal effect rating ([4]; 0.0625 kg/ha): 9.0
ECHORC herbicidal effect rating ([4]; 0.1250 kg/ha): 9.0
ECHORC herbicidal effect rating ([4]; 0.2500 kg/ha): 9.0
Preemergence herbicidal rating ZEAMX (ZEAMX (Corn, Field) [5]; rate 0.0156 kg/ha): 0.0
Preemergence herbicidal rating ZEAMX (ZEAMX (Corn, Field) [5]; rate 0.0313 kg/ha): 0.0
Preemergence herbicidal rating ZEAMX (ZEAMX (Corn, Field) [5]; rate 0.0625 kg/ha): 0.0
Preemergence herbicidal rating ZEAMX (ZEAMX (Corn, Field) [5]; rate 0.1250 kg/ha): 1.0
Preemergence herbicidal rating ZEAMX (ZEAMX (Corn, Field) [5]; rate 0.2500 kg/ha): 1.0
Herbicidal rating ECHORC ([6]; Rate 0.0313 kg/ha): 9.0
Herbicidal rating ECHORC ([6]; Rate 0.0625 kg/ha): 9.0
Herbicidal rating ECHORC ([6]; Rate 0.1250 kg/ha): 9.0
Herbicidal rating ECHORC ([6]; Rate 0.2500 kg/ha): 9.0
Preemergence herbicidal rating IPOHE ([7]; rate 0.0156 kg/ha): 0.0
Preemergence herbicidal rating IPOHE ([7]; rate 0.0313 kg/ha): 0.0
Preemergence herbicidal rating IPOHE ([7]; rate 0.0625 kg/ha): 0.0
Preemergence herbicidal rating IPOHE ([7]; rate 0.1250 kg/ha): 2.0
Preemergence herbicidal rating IPOHE ([7]; rate 0.2500 kg/ha): 7.0
Preemergence herbicidal rating AMBEL (AMBEL (Ragweed, Common); rate 0.0156 kg/ha): 0.0
Preemergence herbicidal rating AMBEL (AMBEL (Ragweed, Common); rate 0.0625 kg/ha): 2.0
Preemergence herbicidal rating AMBEL (AMBEL (Ragweed, Common); rate 0.1250 kg/ha): 9.0
Preemergence herbicidal rating AMBEL (AMBEL (Ragweed, Common); rate 0.2500 kg/ha): 9.0
GALAP herbicidal rating (GALAP (Galium); rate 0.0158 kg/ha): 6.0
GALAP herbicidal rating (GALAP (Galium); rate 0.0315 kg/ha): 7.0
GALAP herbicidal rating (GALAP (Galium); rate 0.0630 kg/ha): 9.0
Herbicidal rating CYPSE (CYPSE (Flatsedge) [8]; Rate 0.0313 kg/ha): 0.0
Herbicidal rating CYPSE (CYPSE (Flatsedge) [8]; Rate 0.0625 kg/ha): 0.0
Herbicidal rating CYPSE (CYPSE (Flatsedge) [8]; Rate 0.1250 kg/ha): 9.0
Herbicidal rating CYPSE (CYPSE (Flatsedge) [8]; Rate 0.2500 kg/ha): 9.0
Preemergence herbicidal rating CHEAL ([9]; rate 0.0156 kg/ha): 9.0
Preemergence herbicidal rating CHEAL ([9]; rate 0.0313 kg/ha): 9.0
Preemergence herbicidal rating CHEAL ([9]; rate 0.0625 kg/ha): 9.0
Preemergence herbicidal rating CHEAL ([9]; rate 0.1250 kg/ha): 9.0
Preemergence herbicidal rating CHEAL ([9]; rate 0.2500 kg/ha): 9.0

Cn1c(C(F)(F)F)cc(=O)n(-c2cc(N=C3SCC(=O)N3C3CCOC3=O)c(Cl)cc2F)c1=O (centres unmarked) [Compound 73]
ZEAMX herbicidal rating (ZEAMX (Corn, Field) [1]; rate 0.0158 kg/ha): 4.5
ZEAMX herbicidal rating (ZEAMX (Corn, Field) [1]; rate 0.0315 kg/ha): 4.5
ZEAMX herbicidal rating (ZEAMX (Corn, Field) [1]; rate 0.0630 kg/ha): 5.0
Preemergence herbicidal rating ORYSAT (ORYSAT (Rice, Tebonnet); rate 0.0156 kg/ha): 0.0
Preemergence herbicidal rating ORYSAT (ORYSAT (Rice, Tebonnet); rate 0.0313 kg/ha): 0.0
Preemergence herbicidal rating ORYSAT (ORYSAT (Rice, Tebonnet); rate 0.0625 kg/ha): 2.0
Preemergence herbicidal rating ORYSAT (ORYSAT (Rice, Tebonnet); rate 0.1250 kg/ha): 2.0
Preemergence herbicidal rating ORYSAT (ORYSAT (Rice, Tebonnet); rate 0.2500 kg/ha): 4.0
Preemergence herbicidal rating TRZAWR ([2]; rate 0.0156 kg/ha): 0.0
Preemergence herbicidal rating TRZAWR ([2]; rate 0.0313 kg/ha): 0.0
Preemergence herbicidal rating TRZAWR ([2]; rate 0.0625 kg/ha): 1.0
Preemergence herbicidal rating TRZAWR ([2]; rate 0.1250 kg/ha): 3.0
Preemergence herbicidal rating TRZAWR ([2]; rate 0.2500 kg/ha): 4.0
CYPIR herbicidal effect rating (CYPIR (Rice Flatsedge); 0.1250 kg/ha): 0.0
CYPIR herbicidal effect rating (CYPIR (Rice Flatsedge); 0.2500 kg/ha): 6.0
CASOB herbicidal rating (CASOB (Sicklepod); rate 0.0158 kg/ha): 1.0
CASOB herbicidal rating (CASOB (Sicklepod); rate 0.0315 kg/ha): 7.0
CASOB herbicidal rating (CASOB (Sicklepod); rate 0.0630 kg/ha): 7.0
CYPSE herbicidal effect rating (CYPSE (Flatsedge) [3]; 0.1250 kg/ha): 2.0
CYPSE herbicidal effect rating (CYPSE (Flatsedge) [3]; 0.2500 kg/ha): 4.0
ECHORC herbicidal effect rating ([4]; 0.1250 kg/ha): 3.0
ECHORC herbicidal effect rating ([4]; 0.2500 kg/ha): 7.0
Preemergence herbicidal rating ZEAMX (ZEAMX (Corn, Field) [5]; rate 0.0156 kg/ha): 0.0
Preemergence herbicidal rating ZEAMX (ZEAMX (Corn, Field) [5]; rate 0.0313 kg/ha): 0.0
Preemergence herbicidal rating ZEAMX (ZEAMX (Corn, Field) [5]; rate 0.0625 kg/ha): 1.0
Preemergence herbicidal rating ZEAMX (ZEAMX (Corn, Field) [5]; rate 0.1250 kg/ha): 4.0
Preemergence herbicidal rating ZEAMX (ZEAMX (Corn, Field) [5]; rate 0.2500 kg/ha): 7.0
Herbicidal rating ECHORC ([6]; Rate 0.1250 kg/ha): 3.0
Herbicidal rating ECHORC ([6]; Rate 0.2500 kg/ha): 7.0
Preemergence herbicidal rating IPOHE ([7]; rate 0.0156 kg/ha): 0.0
Preemergence herbicidal rating IPOHE ([7]; rate 0.0313 kg/ha): 1.0
Preemergence herbicidal rating IPOHE ([7]; rate 0.0625 kg/ha): 0.0
Preemergence herbicidal rating IPOHE ([7]; rate 0.1250 kg/ha): 1.0
Preemergence herbicidal rating IPOHE ([7]; rate 0.2500 kg/ha): 7.0
Preemergence herbicidal rating AMBEL (AMBEL (Ragweed, Common); rate 0.0156 kg/ha): 1.0
Preemergence herbicidal rating AMBEL (AMBEL (Ragweed, Common); rate 0.0313 kg/ha): 0.0
Preemergence herbicidal rating AMBEL (AMBEL (Ragweed, Common); rate 0.0625 kg/ha): 4.0
Preemergence herbicidal rating AMBEL (AMBEL (Ragweed, Common); rate 0.1250 kg/ha): 9.0
Preemergence herbicidal rating AMBEL (AMBEL (Ragweed, Common); rate 0.2500 kg/ha): 9.0
GALAP herbicidal rating (GALAP (Galium); rate 0.0158 kg/ha): 3.0
GALAP herbicidal rating (GALAP (Galium); rate 0.0315 kg/ha): 7.0
GALAP herbicidal rating (GALAP (Galium); rate 0.0630 kg/ha): 6.0
Herbicidal rating CYPSE (CYPSE (Flatsedge) [8]; Rate 0.1250 kg/ha): 2.0
Herbicidal rating CYPSE (CYPSE (Flatsedge) [8]; Rate 0.2500 kg/ha): 4.0
Preemergence herbicidal rating CHEAL ([9]; rate 0.0156 kg/ha): 9.0
Preemergence herbicidal rating CHEAL ([9]; rate 0.0313 kg/ha): 9.0
Preemergence herbicidal rating CHEAL ([9]; rate 0.0625 kg/ha): 9.0
Preemergence herbicidal rating CHEAL ([9]; rate 0.1250 kg/ha): 9.0
Preemergence herbicidal rating CHEAL ([9]; rate 0.2500 kg/ha): 9.0
